Measured values as given in ChEMBL document CHEMBL1201862, “PubChem BioAssay data set” (2004).
Active and inactive are the calls of the source.

Experiments:
[1] = biological target: Glyceraldehyde-3-phosphate dehydrogenase (Homo sapiens, UniProt P04406)
[2] = biological target: T1, Alkaline phosphatase, tissue-nonspecific isozyme (Homo sapiens, UniProt P05186); assay: human TNAP enzyme inhibitors, SAR follow-up, biochemical, luminescent, dose response (AID 1056)
T1 sequence (P05186 whole entry): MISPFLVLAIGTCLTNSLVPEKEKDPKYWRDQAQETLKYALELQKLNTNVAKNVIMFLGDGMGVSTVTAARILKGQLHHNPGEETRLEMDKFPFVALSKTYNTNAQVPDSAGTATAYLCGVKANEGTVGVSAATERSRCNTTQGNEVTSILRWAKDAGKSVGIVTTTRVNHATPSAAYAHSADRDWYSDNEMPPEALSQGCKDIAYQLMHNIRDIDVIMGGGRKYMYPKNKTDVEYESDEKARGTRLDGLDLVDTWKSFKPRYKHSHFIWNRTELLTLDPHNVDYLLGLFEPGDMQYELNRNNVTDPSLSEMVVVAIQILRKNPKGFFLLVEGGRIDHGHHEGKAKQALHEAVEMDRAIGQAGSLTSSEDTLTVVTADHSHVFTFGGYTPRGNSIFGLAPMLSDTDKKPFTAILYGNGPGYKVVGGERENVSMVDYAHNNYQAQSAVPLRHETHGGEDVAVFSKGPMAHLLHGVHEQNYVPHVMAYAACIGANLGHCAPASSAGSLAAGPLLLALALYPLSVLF

Leucine aminopeptidase = biological target: T2, Leucine aminopeptidase (Plasmodium falciparum 3D7, UniProt Q8IL11); assay: P. falciparum M17LAP inhibitors, primary screen, biochemical, fluorogenic H-Leu-NHMec substrate, 1536-well (AID 1619); assay type: functional
T2 sequence (Q8IL11 whole entry): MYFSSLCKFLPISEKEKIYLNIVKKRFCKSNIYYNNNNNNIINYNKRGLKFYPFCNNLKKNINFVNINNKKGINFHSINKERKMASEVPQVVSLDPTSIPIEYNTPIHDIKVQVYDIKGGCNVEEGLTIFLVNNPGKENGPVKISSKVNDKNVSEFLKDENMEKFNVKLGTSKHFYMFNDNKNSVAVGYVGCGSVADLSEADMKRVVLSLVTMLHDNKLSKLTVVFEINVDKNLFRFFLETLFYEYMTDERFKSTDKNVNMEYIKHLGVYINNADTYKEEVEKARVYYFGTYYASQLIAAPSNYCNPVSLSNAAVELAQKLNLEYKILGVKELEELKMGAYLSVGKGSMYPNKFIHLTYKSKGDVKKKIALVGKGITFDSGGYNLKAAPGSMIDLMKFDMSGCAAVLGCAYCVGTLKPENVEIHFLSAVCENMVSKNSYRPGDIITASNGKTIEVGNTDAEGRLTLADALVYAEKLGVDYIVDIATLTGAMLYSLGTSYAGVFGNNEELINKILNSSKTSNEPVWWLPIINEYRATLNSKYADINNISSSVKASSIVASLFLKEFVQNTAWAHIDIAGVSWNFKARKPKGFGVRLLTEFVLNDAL

[3] = THP-1 cell cytotoxicity, dose response, cytotoxicity control for non-replicating M. tuberculosis project (AID 489025); assay type: functional
[4] = HepG2 cell cytotoxicity, dose response, cytotoxicity control for non-replicating M. tuberculosis project (AID 489018); assay type: functional; conditions: Mycobacterium tuberculosis
[5] = Vero E6 cell cytotoxicity, dose response, cytotoxicity control for non-replicating M. tuberculosis project, secondary assay (AID 492998); assay type: functional, VeroE6; conditions: Vero C1008
cells = assay type: functional
H9c2 = assay: cells; assay type: functional, cell-based; conditions: Rattus norvegicus, H9c2, Myocardium;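 note: confirmatory concentration-response retest of ultra-high-throughput screening hits for modulation of myocardial damage; cell death induced by hydrogen peroxide oxidative stress; compound pretreatment for 60 min then peroxide exposure for 2 h; potency is for protecting the cells against peroxide damage rather than for killing them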
[6] = Luminescence Cell-Based Dose Retest to Confirm Inhibitors of Cancer Stem Cells. [Related pubchem assays (depositor defined):AID2717, AID2721]; assay type: functional; conditions: Homo sapiens
[7] = cytotoxicity in HEK-293T cells, dose response, cytotoxicity control for TCR NF-kB inhibitor project, luminescence, T-cell screen hits (AID 489026); assay type: functional, cell-based;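 note: cells exposed to compound about 14 hours before the viability readout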
Nonstructural protein 1 = Nonstructural protein 1 (Influenza A virus, UniProt Q194T2); assay type: functional, Influenza A virus (A/California/07/2009(H1N1))
Nonstructural protein 1, sequence (Q194T2 whole entry): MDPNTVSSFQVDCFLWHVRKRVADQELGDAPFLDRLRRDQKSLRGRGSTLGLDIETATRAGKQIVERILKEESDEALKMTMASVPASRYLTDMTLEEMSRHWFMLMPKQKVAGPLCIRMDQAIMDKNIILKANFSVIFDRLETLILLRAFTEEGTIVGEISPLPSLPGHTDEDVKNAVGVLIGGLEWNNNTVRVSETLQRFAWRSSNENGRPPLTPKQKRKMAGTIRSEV

INS1 = assay: beta cell apoptosis inhibitors, cytokine rescue, dose response, luminescence, retest (AID 449756); assay type: functional, cell-based; conditions: Rattus norvegicus;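 note: cell death triggered by IL-1 beta plus TNF-alpha plus IFN-gamma mixture; protective hits raise ATP signal compared with cytokine alone wells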
[8] = Shn3 3'UTR reporter inhibitors, dose response, cell-based, Clone20 osteoblasts, firefly luciferase, cherry-picked (AID 624132); assay type: functional;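 note: firefly luciferase luminescence from reporter carrying the Shn3 3'UTR in osteoblasts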
[9] = HepG2 cell cytotoxicity, dose response, cytotoxicity control for Shn3 inhibitor project, CellTiter-Glo, cherry-picked (AID 624134); assay type: functional, cell-based
[10] = control 3'UTR Renilla luciferase suppression, dose response, counter-screen for Shn3 inhibitor project, cell-based, Clone20-Shn3RL, cherry-picked (AID 624133); assay type: functional
Genome polyprotein = Genome polyprotein (dengue virus type 2, UniProt P29990); assay: Dengue-2 NS5 methyltransferase inhibitors, primary screen, biochemical, confirmation dose response (AID 588689); assay type: functional
Genome polyprotein, sequence (P29990 2492-3391 limits assumed): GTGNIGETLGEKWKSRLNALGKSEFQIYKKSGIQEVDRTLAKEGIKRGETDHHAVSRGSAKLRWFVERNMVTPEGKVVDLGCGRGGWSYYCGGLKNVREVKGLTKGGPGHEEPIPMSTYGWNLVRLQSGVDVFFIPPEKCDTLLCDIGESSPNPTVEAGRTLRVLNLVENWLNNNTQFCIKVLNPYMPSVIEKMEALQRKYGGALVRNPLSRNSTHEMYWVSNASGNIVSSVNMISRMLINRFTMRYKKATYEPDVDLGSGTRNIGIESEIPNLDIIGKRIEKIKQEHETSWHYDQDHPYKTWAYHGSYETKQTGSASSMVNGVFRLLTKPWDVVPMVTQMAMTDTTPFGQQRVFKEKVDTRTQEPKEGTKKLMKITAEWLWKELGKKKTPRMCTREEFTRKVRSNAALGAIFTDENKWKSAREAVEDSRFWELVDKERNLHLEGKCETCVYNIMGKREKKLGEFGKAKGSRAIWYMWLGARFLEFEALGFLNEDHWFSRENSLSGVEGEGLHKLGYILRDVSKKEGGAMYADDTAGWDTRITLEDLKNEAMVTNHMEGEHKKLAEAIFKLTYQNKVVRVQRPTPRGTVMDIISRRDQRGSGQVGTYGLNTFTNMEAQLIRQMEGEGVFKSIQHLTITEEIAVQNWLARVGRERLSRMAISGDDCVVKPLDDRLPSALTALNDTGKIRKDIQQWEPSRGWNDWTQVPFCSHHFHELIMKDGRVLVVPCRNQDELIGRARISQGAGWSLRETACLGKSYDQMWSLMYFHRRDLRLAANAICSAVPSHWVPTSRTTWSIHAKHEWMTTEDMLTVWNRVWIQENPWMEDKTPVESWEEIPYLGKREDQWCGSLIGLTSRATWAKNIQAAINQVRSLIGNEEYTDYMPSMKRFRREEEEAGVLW

[11] = NIH-3T3 fibroblast cytotoxicity, dose response, cytotoxicity control, cell-based, fluorescence, Alamar Blue, secondary assay (AID 2327); assay type: functional;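 note: NIH-3T3 mouse fibroblasts cultured with fluconazole at 8 µg/mL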
[12] = C. albicans growth with fluconazole, confirmation, fluorescence, retest (AID 2467); assay type: functional, cell-based
[13] = microbe, parasite or virus in culture; assay type: functional; conditions: Mycobacterium tuberculosis
Estrogen receptor beta = Estrogen receptor beta (Homo sapiens, UniProt Q92731); assay: ERβ–SRC-3 coactivator interaction inhibitors, confirmation, orthogonal assay, biochemical, ELISA, streptavidin-HRP readout (AID 1060)
Estrogen receptor beta, sequence (Q92731 whole entry): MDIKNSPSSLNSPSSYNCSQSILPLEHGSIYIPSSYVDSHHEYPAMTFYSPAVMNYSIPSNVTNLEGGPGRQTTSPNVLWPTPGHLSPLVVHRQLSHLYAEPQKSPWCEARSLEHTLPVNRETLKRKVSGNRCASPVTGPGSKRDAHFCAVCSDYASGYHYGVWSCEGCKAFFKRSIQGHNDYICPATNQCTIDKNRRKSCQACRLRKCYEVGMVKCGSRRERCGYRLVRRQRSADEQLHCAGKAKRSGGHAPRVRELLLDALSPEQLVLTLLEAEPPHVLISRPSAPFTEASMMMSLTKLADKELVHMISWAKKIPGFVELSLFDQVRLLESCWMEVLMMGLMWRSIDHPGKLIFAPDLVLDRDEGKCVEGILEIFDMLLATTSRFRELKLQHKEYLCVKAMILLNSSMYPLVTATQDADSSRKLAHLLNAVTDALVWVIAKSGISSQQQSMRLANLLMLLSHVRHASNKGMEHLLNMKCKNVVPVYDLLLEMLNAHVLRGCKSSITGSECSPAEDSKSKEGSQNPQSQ

BJ [14] = assay: cytotoxicity toward BJ-TERT fibroblasts, dose response, cell-based, RAS-independent, luminescence (AID 1933); assay type: functional; conditions: Homo sapiens
BJ [15] = assay: cells; assay type: functional, cell-based; conditions: Homo sapiens
BJ [16] = assay: cytotoxicity toward BJ-TERT-LT-ST fibroblasts, dose response, cell-based, RAS-independent, luminescence (AID 1935); assay type: functional; conditions: Homo sapiens;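 note: BJ fibroblasts immortalized with TERT plus LT and ST oncogenes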
[17] = cytotoxicity toward DRD oncogenic fibroblasts, dose response, cell-based, non-viral oncogenic, luminescence (AID 1934); assay type: functional; conditions: Homo sapiens

Glyceraldehyde-3-phosphate dehydrogenase, sequence (P04406 whole entry): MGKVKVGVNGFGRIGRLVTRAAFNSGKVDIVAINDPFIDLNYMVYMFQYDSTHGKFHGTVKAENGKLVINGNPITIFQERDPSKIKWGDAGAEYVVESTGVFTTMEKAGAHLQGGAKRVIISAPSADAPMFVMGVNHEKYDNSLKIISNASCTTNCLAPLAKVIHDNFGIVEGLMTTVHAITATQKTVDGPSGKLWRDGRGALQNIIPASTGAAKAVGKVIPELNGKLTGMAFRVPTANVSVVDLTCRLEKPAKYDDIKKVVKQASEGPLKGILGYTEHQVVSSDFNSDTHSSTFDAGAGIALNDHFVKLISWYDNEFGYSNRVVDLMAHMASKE

Structure (SMILES): CCOc1ccc(S(=O)(=O)Nc2nc3ccccc3nc2Cl)cc1
- IC50 [1]: > 100 µM (not active)
- IC50 [2]: > 100 µM (inactive)

Structure (SMILES): O=C(O)COc1ccccc1/C=C1\SC(=O)N(Cc2ccc(F)cc2)C1=O
- IC50 (Leucine aminopeptidase): 34.8 µM (active)

Structure (SMILES): CCOC(=O)Cc1c(C)nc2c(-c3ccc(Cl)cc3)cnn2c1O
- CC50 [3]: 29 µM (active)
- CC50 [4]: > 20 µM (active)
- CC50 [5]: 17.5 µM (active)
- IC50 (cells): 6.28 µM (active)
- IC50 (H9c2): > 79 µM (inactive)

Structure (SMILES): Cc1ccnc2c1ccc1c(C)ccnc12
- AC50 [6]: 1.54 µM (active)
- IC50 [7]: > 80 µM (inactive)
- IC50 (Nonstructural protein 1): 0.472 µM (active)
- AC50 (INS1): 1.92 µM (active)
- AC50 [8]: 0.857 µM (active)
- AC50 [9]: > 70 µM (inactive)
- AC50 [10]: > 70 µM (inactive)

Structure (SMILES): Cn1nc(C(=O)O)cc1-c1ccc(F)cc1
- IC50 [1]: > 100 µM (not active)
- IC50 [2]: > 100 µM (inactive)

Structure (SMILES): O=C(O)CCc1nnc(SCC(=O)Nc2ccc(Br)cc2)nc1O
- IC50 (Leucine aminopeptidase): 2.45 µM (active)

Structure (SMILES): CCCCCCSc1nc(O)c(C2OC(=O)c3c2ccc(OC)c3OC)c(=O)n1CC (stereo not given)
- IC50 (Leucine aminopeptidase): 3 µM (active)
- IC50 (Genome polyprotein): 56.9 µM (active)

Structure (SMILES): CCCCN(C)S(=O)(=O)c1ccc(C(=O)Nc2nnc(-c3ccco3)o2)cc1
- EC50 [11]: > 160 µM (inconclusive)
- EC50 [12]: 2.63 µM (active)
- CC50 [13]: 11.6 µM (active)
- CC50 [3]: 10.5 µM (active)
- CC50 [4]: 12.5 µM (active)
- CC50 [5]: 6.27 µM (active)
- IC50 (cells): 6.64 µM (active)

Structure (SMILES): COCCOC(=O)c1c(C)oc2ccc(NS(=O)(=O)c3ccc(C(=O)O)cc3)cc12
- IC50 (Estrogen receptor beta): 3.82 µM (not active)

Structure (SMILES): Cc1cc(S(=O)(=O)c2ccc([N+](=O)[O-])cn2)ccc1Br
- EC50 (BJ [14]): 3.26 µM (active)
- EC50 (BJ [15]): 17.6 µM (active)
- EC50 (BJ [16]): 17 µM (active)
- EC50 [17]: 6.93 µM (inconclusive)
- CC50 [3]: 12.2 µM (active)
- AC50 [6]: 1.86 µM (active)
- CC50 [4]: 18 µM (active)
- CC50 [5]: 13.6 µM (active)
- IC50 (cells): 0.68 µM (active)
- AC50 [8]: 3.69 µM (active)
- AC50 [9]: 21.4 µM (active)
- AC50 [10]: 17.5 µM (active)
